Experimental findings from the supplement of paper PMC11061612 are described below.

Each structure is given as a SMILES string.

Experiment in all cases: Bliss excess, mean over the matrix (fraction); higher = more synergy
Assay [1] deals with CAL-62 (Thyroid Gland Carcinoma). In a few lines:
(§1)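 Cell lines in DMEM/F12 or RPMI with 10% FBS were plated in 1536-well plates, held 24 hours at 37°C, 5% CO2, then given two-drug dose matrices for 72 hours (DMSO typically 0.2%). Viability was read by CellTiter-Glo 2.0 luminescence and scaled as inhibition from 0 (vehicle wells) to 1 (blank wells). Combination Emax is the second-highest inhibition in the matrix; Bliss excess is observed combination effect minus expected EA + EB − EA·EB, EA and EB being single-agent effects.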

Assay [2] concerns MFE-280 (Endometrial Carcinoma). The method in brief: as §1
For assay [3], the system named is NCI-H2342 (Lung Adenocarcinoma). In a few lines:
as §1

Assay [4] deals with OPM-2 (Plasma Cell Myeloma). The method in brief:
as §1

Assay [5] concerns PC-3_[JPC-3] (Lung Adenocarcinoma). The method in brief:
as §1

Assay [6] concerns RCM-1 (Colorectal Carcinoma). In a few lines: as §1
Assay [7] concerns RKN (Other Solid Carcinomas). The method in brief:
as §1

The test system of assay [8] is TE-8 (Esophageal Squamous Cell Carcinoma). In a few lines: as §1

`N#Cc1cnc(Nc2cc(NC[C@H]3CNCCO3)c(C(F)(F)F)cn2)cn1` [SRA737] + CCc1c2c(nc3ccc(O)cc13)-c1cc3c(c(=O)n1C2)COC(=O)[C@]3(O)CC [SN-38] (first compound max 10 µM, 7x7, partner max 0.3 µM): the Bliss excess in assay [1] was -0.0228; in assay [2], 0.0626; in assay [3], 0.0737; in assay [4] it was 0.0183; in assay [5] it was -0.0536; in assay [6], -0.0427. Moreover, the Bliss excess came out at 0.0914 in assay [7] and 0.0052 in assay [8].
On to `N#Cc1cnc(Nc2cc(NC[C@H]3CNCCO3)c(C(F)(F)F)cn2)cn1` [SRA737] + Nc1ccn([C@@H]2O[C@H](CO)[C@@H](O)C2(F)F)c(=O)n1 [Gemcitabine] (first compound max 10 µM, 7x7, partner max 0.3 µM), for which the Bliss excess in assay [1] was found to be 0.0436; in assay [2], 0.0527; in assay [3], 0.14; in assay [4] it was 0.0238; in assay [5], 0.0514; in assay [6] it was 0.138. The Bliss excess in assay [7] was 0.118; in assay [8], -0.022.
With `N#Cc1cnc(Nc2cc(NC[C@H]3CNCCO3)c(C(F)(F)F)cn2)cn1` [SRA737] + O=c1[nH]cc(F)c(=O)[nH]1 [5-Fluorouracil] (first compound max 10 µM, 7x7, partner max 20 µM), the Bliss excess in assay [1] is -0.0187; in assay [2], -0.0423; in assay [3], -0.0171; in assay [4], 0.006; in assay [5], -0.0443; in assay [6], -0.0009. Besides, the Bliss excess in assay [7] is -0.0501; in assay [8] it was -0.0279.
For the molecule `Cc1nc(-c2cn3c(n2)-c2ccc(-c4cnn(C(C)(C)C(N)=O)c4)cc2OCC3)n(C(C)C)n1` [Taselisib] + O=C(Nc1ccc2[nH]nc(-c3ccncc3)c2c1)[C@@H]1CCN(CC(=O)N2CCN(c3ccc(-c4ncccn4)cc3)CC2)C1 [SCH772984] (first compound max 10 µM, 7x7, partner max 5 µM), the Bliss excess in assay [1] was 0.0096; in assay [2], 0.0107; in assay [3], 0.103; in assay [4], 0.0779; in assay [5], 0.0293; in assay [6], 0.1. Besides, the Bliss excess in assay [7] was 0.0798; in assay [8], -0.0514.
As to `CC1(C)CCC(CN2CCN(c3ccc(C(=O)NS(=O)(=O)c4ccc(NCC5CCOCC5)c([N+](=O)[O-])c4)c(Oc4cnc5[nH]ccc5c4)c3)CC2)=C(c2ccc(Cl)cc2)C1` [Venetoclax] + CS(=O)(=O)CCNCc1ccc(-c2ccc3ncnc(Nc4ccc(OCc5cccc(F)c5)c(Cl)c4)c3c2)o1 [Lapatinib] (first compound max 1 µM, 7x7, partner max 10 µM), the Bliss excess in assay [1] is -0.0442; in assay [2] it was -0.0477; in assay [3], -0.0374; in assay [4], 0.0306; in assay [5] it was -0.0332; in assay [6], -0.0112. The Bliss excess is -0.0482 in assay [7] and -0.0453 in assay [8].
